From patent US7795310B2, “Methods and reagents for the treatment of metabolic disorders” (CombinatoRx, Inc., priority 2004, dated 2010) come the findings set out here.

The assay deals with 3T3-L1 adipocytes. The experiment in a line: Insulin-stimulated 14C-glucose uptake in differentiated adipocytes (Example 1). Conditions: Bezafibrate 0 μM, average of four biological replicates. The class given is cell-based, mouse. The procedure:
Differentiated mouse adipocytes were employed to identify combinations of agents that have the ability to increase glucose uptake upon insulin stimulation, as detected by scintillation counting of radiolabelled glucose (using, for example, the Perkin Elmer 1450 Microbeta JET reader). These assays were conducted as follows.
Complete media, also referred to as “Prees” media, was prepared as follows. Dulbecco's Modified Eagle's Medium (DMEM) was supplemented with L-glutamine, penicillin-G and streptomycin (pen/strep), and heat-inactivated fetal bovine serum (FBS) (heat inactivated at […] for 30 minutes). Because serum can affect the growth, adherence, and differentiation of cells, any new lot of serum was first tested prior to use. Media was equilibrated in the incubator (5% CO2) until the pH was within the proper range (˜7), as indicated by the red/orange color of the indicator dye. If the media became pink (indicating a high pH), we discarded the media as basic conditions can affect cells and denature the insulin used in the differentiation medium-1 (DM1) and the differentiation medium-2 (DM2).
Differentiation media-1 (DM1) was prepared by supplementing DMEM with 10% FBS, L-glutamine, pen/strep, IBMX (375 μM), insulin (120 nM), and dexamethasone (188 nM). Differentiation media-2 (DM2) was prepared by supplementing DMEM with 10% FBS, L-glutamine, pen/strep, and insulin (120 nM).
Cell culture plates were gelatinized as follows. Gelatin (1% w/v in distilled water) was autoclaved and stored at room temperature. The bottom of each cell culture well was covered uniformly in the gelatin solution, ensuring that no bubbles were formed. This solution was removed leaving behind a thin film of gelatin. These plates were left to dry under the tissue culture hood. Plates were next washed with PBS, after which a 0.5% glutaric dialdehyde solution (glutaraldehyde in distilled water) was added to the cell culture wells. After ten minutes, wells were washed twice with DMEM containing pen-strep. Each washing step should last for approximately five minutes.
3T3-L1 pre-adipocyte cells were split approximately every 2-3 days or upon reaching a confluence of approximately 60%. Overconfluency may affect the ability of these cells to differentiate into adipocytes.
D-(+)-glucose (“cold” glucose, not radiolabeled) was added to DPBS mix to a final concentration of 10 mM.
Lysis buffer, a mixture of a base (e.g., sodium hydroxide at a final concentration of 0.5N) and a detergent (e.g., sodium dodecyl sulphate (SDS) diluted to a final concentration of 0.1% w/v) was freshly prepared each time (within one to two hours of use). Prior to use, lysis buffer was warmed up to a temperature exceeding that of room temperature for a period of approximately 30 minutes to avoid precipitation of the buffer.
Pre-adipocyte 3T3-L1 cells were plated at a density of approximately 5000 cells/well (in black NUNC 96 well plate). These cells were differentiated into adipocytes in two separate steps. Initially, cells were cultured in differentiation medium-1 (DM1) (day 1 of adipocyte differentation) for a period of two to three days. DM1 prevents proliferation and induces the expression of adipocyte-specific genes. Cells were next cultured in differentiation medium-2 (DM2) for 3 to 4 days, after which the culture media was replaced by fresh DM2. The glucose uptake assay was performed at day 9-15 of differentiation.
Two days prior to the experiment (at day 7-13 of differentiation), DM2 was removed and replaced with fresh Prees media. Candidate compounds were added at this time, allowing an incubation period of approximately 48 hours. On the day of the experiment, cells (now at day 9 to 15 of differentiation) were serum starved for three hours in DPBS, magnesium sulfate (0.8 mM), and Hepes (10 mM) at pH ˜7. After this incubation period, fresh DPBS containing insulin (10 nM) was added to the adipocytes. Fresh DPBS without any insulin were placed on cells that served as a negative control. […]

Molecules are shown by their SMILES.

Regarding `O=C(O)c1cc(-c2ccc(F)cc2F)ccc1O` [Diflunisal, 2′,4′-difluoro-4-hydroxy-[1,1′-biphenyl]-3-carboxylic acid], the “average fold increase in insulin-stimulated glucose uptake compared to vehicle treated control” value is given as 1.12 fold (Diflunisal 9 μM), 1.19 fold (Diflunisal 18 μM) and 1.52 fold (Diflunisal 36 μM).
